What was measured:
[1] = Membrane permeability at […] at pH 6.5 to 7.4 after 4 hrs by PAMPA; format: ADME; details: read-out: permeability
[2] = Octanol-PBS partition coefficient, log D at […] at pH 7.4; format: physicochemical
[3] = Intrinsic clearance in rat liver microsomes after 10 to 45 mins by LCMS/MS analysis; format: ADME, Microsome
[4] = Intrinsic clearance in human liver microsomes after 10 to 45 mins by LCMS/MS analysis; format: ADME, Microsome

Row | SMILES | Papp at 4 h [1] [×10⁻⁶ cm/s] | logD [2] | microsomal CLint [3] [µL/min/mg] | microsomal CLint [4] [µL/min/mg]
1 | CC1(CC(=O)NCCNc2ccnc3cc(Cl)ccc23)CC2(CCCCC2)OO1 (stereo not given) | 66 | 3.4 | > 119 | > 72
2 | CC1(CC(=O)NCc2ccccc2Sc2ccccc2CO)CC2(CCCCC2)OO1 (stereo not given) | 77 | 4.3 | – | –
3 | COc1cccc(CNC(=O)CC2(C)CC3(CCCCC3)OO2)c1 (stereo not given) | 65 | 3.1 | – | –
4 | CC1(CC(=O)NCc2ccc(Br)cc2F)CC2(CCCCC2)OO1 (stereo not given) | – | 4.1 | – | –
5 | CC1(CC(=O)NCc2ccc(Oc3cc(C(F)(F)F)cc(C(F)(F)F)c3)cc2)CC2(CCCCC2)OO1 (stereo not given) | – | 3.2 | – | –
6 | CC1(CC(=O)NCc2ccc(OC(F)(F)F)cc2)CC2(CCCCC2)OO1 (stereo not given) | – | 3.2 | – | –
7 | CC1(CC(=O)NCc2cccc(C(F)(F)F)c2)CC2(CCCCC2)OO1 (stereo not given) | – | 4 | – | –
8 | CC(C)(C)OC(=O)Nc1cccc(CCNC(=O)CC2(C)CC3(CCCCC3)OO2)c1 (stereo not given) | – | 3 | – | –
9 | CC1(CC(=O)NCc2cccc(I)c2)CC2(CCCCC2)OO1 (stereo not given) | – | 3.5 | – | –
10 | CC1(CC(=O)NCc2ccccc2N)CC2(CCCCC2)OO1 (stereo not given) | 37 | 2.5 | – | –
11 | CC1(CC(=O)NCc2ccc3c(c2)OCC=CO3)CC2(CCCCC2)OO1 (stereo not given) | 55 | 3.1 | – | –
12 | CC1(CC(=O)NCc2ccccc2OC(F)(F)F)CC2(CCCCC2)OO1 (stereo not given) | – | 3.3 | – | –
13 | CC1(CC(=O)NCc2ccc(Oc3ccc(F)cc3)cc2)CC2(CCCCC2)OO1 (stereo not given) | – | > 3.5 | – | –
14 | CC1(CC(=O)NCc2ccccn2)CC2(CCCCC2)OO1 (stereo not given) | 33 | 2.3 | – | –
15 | CC1(CC(=O)NCc2ccc([N+](=O)[O-])cc2)CC2(CCCCC2)OO1 (stereo not given) | 49 | 3.4 | – | –
16 | CC1(CC(=O)NCc2ccc(S(N)(=O)=O)cc2)CC2(CCCCC2)OO1 (stereo not given) | – | 1.4 | – | –
17 | CC1(CC(=O)NCc2cccc(Cl)c2Cl)CC2(CCCCC2)OO1 (stereo not given) | – | 3.4 | – | –
18 | CC1(CC(=O)NCc2cccc(-c3ccccc3)c2)CC2(CCCCC2)OO1 (stereo not given) | – | 3.8 | – | –
19 | CC1(CC(=O)NCc2ccc(-c3ccc(F)cc3)cc2)CC2(CCCCC2)OO1 (stereo not given) | – | 4.8 | – | –
20 | CC1(CC(=O)NCc2cccc(Oc3ccc(Cl)cc3)c2)CC2(CCCCC2)OO1 (stereo not given) | – | 3.2 | – | –
21 | CC1(CC(=O)NCc2cccc(Br)c2)CC2(CCCCC2)OO1 (stereo not given) | – | 3.3 | – | –

Row | SMILES | Papp at 4 h [1] [×10⁻⁶ cm/s] | logD [2] | microsomal CLint [3] [µL/min/mg] | microsomal CLint [4] [µL/min/mg]
22 | CC1(CC(=O)NCc2ccc(C(C)(C)C)cc2)CC2(CCCCC2)OO1 (stereo not given) | – | 3.5 | – | –
23 | CC1(CC(=O)NCc2ccc(Cl)cc2Cl)CC2(CCCCC2)OO1 (stereo not given) | – | > 3.5 | – | –
24 | CC1(CC(=O)NCc2ccc(-c3cc(Cl)cc(Cl)c3)cc2)CC2(CCCCC2)OO1 (stereo not given) | – | > 3.5 | – | –
25 | CC1(CC(=O)NCc2ccc(C(=O)O)cc2)CC2(CCCCC2)OO1 (stereo not given) | – | 0.3 | – | –
26 | CC1(CC(=O)NCc2cccc(Cl)c2)CC2(CCCCC2)OO1 (stereo not given) | – | 3.7 | – | –
27 | COC(=O)c1ccc(CNC(=O)CC2(C)CC3(CCCCC3)OO2)cc1 (stereo not given) | 57 | 3.4 | – | –
28 | CC1(CC(=O)NCc2ccccc2N2CCCCC2)CC2(CCCCC2)OO1 (stereo not given) | 62 | > 3.5 | – | –
29 | CC1(CC(=O)NCc2ccc(N3CCOCC3)cc2)CC2(CCCCC2)OO1 (stereo not given) | – | 2.7 | – | –
30 | CN(C)c1ccc(CNC(=O)CC2(C)CC3(CCCCC3)OO2)cc1 (stereo not given) | 90 | 3.1 | – | –
31 | CSc1ccc(CNC(=O)CC2(C)CC3(CCCCC3)OO2)cc1 (stereo not given) | 97 | 3.7 | – | –
32 | CCOc1ccccc1CNC(=O)CC1(C)CC2(CCCCC2)OO1 (stereo not given) | 74 | 3.1 | – | –
33 | CC1(CC(=O)NCc2ccncc2)CC2(CCCCC2)OO1 (stereo not given) | 18 | 2.1 | – | –
34 | COc1cc(CNC(=O)CC2(C)CC3(CCCCC3)OO2)cc(OC)c1 (stereo not given) | 55 | 3.3 | – | –
35 | COc1cc(CNC(=O)CC2(C)CC3(CCCCC3)OO2)cc(OC)c1OC (stereo not given) | 54 | 2.3 | – | –
36 | CC1(CC(=O)NCc2ccc(-n3cccc3)cc2)CC2(CCCCC2)OO1 (stereo not given) | 70 | 4.3 | – | –
37 | CC1(CC(=O)NCc2ccc(-c3cccs3)cc2)CC2(CCCCC2)OO1 (stereo not given) | – | 3.7 | – | –
38 | CC1(CC(=O)NCc2ccc(OC(F)F)cc2)CC2(CCCCC2)OO1 (stereo not given) | – | 3.1 | – | –
39 | Cc1cc(Cl)ccc1CNC(=O)CC1(C)CC2(CCCCC2)OO1 (stereo not given) | – | 4.2 | – | –
40 | CC1(CC(=O)NCc2ccc3c(c2)OCC3)CC2(CCCCC2)OO1 (stereo not given) | – | 2.8 | – | –
41 | CC1(CC(=O)NCc2ccc3c(c2)OCCO3)CC2(CCCCC2)OO1 (stereo not given) | 56 | 2.7 | – | –
